Test systems include NCI-H226 lung; SK-MEL-28 melanoma; MOLT-4 leukemia; NCI-H23 lung; RXF 393 renal; IGROV1 ovarian; SK-OV-3 ovarian; CAKI-1 renal; COLO 205 colon; HCT-15 colon; MALME-3M melanoma; KM12 colon; RPMI-8226 leukemia; OVCAR-4 ovarian; A498 renal; MCF7 breast; NCI/ADR-RES ovarian; MDA-MB-231 breast.
Holding throughout (experiment): growth of human tumour cells (NCI), 48 h

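Assay format: 96-well plates, 48-hour exposure. At the TGI there is no net growth.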

With `N/N=c1/nc2n(c3ncccc13)C=CNN2`, the TGI with NCI-H226 lung, in the assay with SK-MEL-28 melanoma, in the assay on MOLT-4 leukemia, in the assay on NCI-H23 lung, with RXF 393 renal and with IGROV1 ovarian was greater than 100 µM each time. The TGI in the assay on SK-OV-3 ovarian, in the assay on CAKI-1 renal, in the assay with COLO 205 colon, with HCT-15 colon, in the assay on MALME-3M melanoma and in the assay with KM12 colon was greater than 100 µM throughout. For the same compound, the TGI in the assay with RPMI-8226 leukemia is greater than 100 µM.

Regarding `O=C1C(Cl)C(c2cccc([N+](=O)[O-])c2)N1n1cnc2ccccc2c1=O` (stereo not given), the TGI in the assay on NCI-H226 lung, with OVCAR-4 ovarian, in the assay on SK-MEL-28 melanoma, in the assay on MOLT-4 leukemia, in the assay on NCI-H23 lung and in the assay on RXF 393 renal was greater than 100 µM throughout. For the same compound, the TGI in the assay on IGROV1 ovarian, in the assay with SK-OV-3 ovarian, in the assay on CAKI-1 renal, in the assay on COLO 205 colon, in the assay with HCT-15 colon and in the assay with MALME-3M melanoma was greater than 100 µM each time. Moreover, the TGI in the assay on KM12 colon and with RPMI-8226 leukemia was greater than 100 µM each time.

For `CCN(CC)C(=O)CCn1ccc(=O)[nH]c1=O`, the TGI with NCI-H226 lung, in the assay on OVCAR-4 ovarian, in the assay on SK-MEL-28 melanoma, in the assay on MOLT-4 leukemia, in the assay on NCI-H23 lung and in the assay with RXF 393 renal was greater than 100 µM each time. Moreover, the TGI with IGROV1 ovarian, in the assay with COLO 205 colon, in the assay on HCT-15 colon, in the assay on MALME-3M melanoma, in the assay on KM12 colon and in the assay with RPMI-8226 leukemia was greater than 100 µM throughout.

On to `O=C(O)c1cc(CCc2ccc(O)c(O)c2)ccc1O`, for which the TGI in the assay on NCI-H226 lung, with MOLT-4 leukemia, with A498 renal, in the assay on NCI-H23 lung, in the assay with IGROV1 ovarian and in the assay with SK-OV-3 ovarian was greater than 100 µM each time. The TGI in the assay with CAKI-1 renal, in the assay with COLO 205 colon, in the assay with HCT-15 colon, in the assay with MCF7 breast, in the assay with NCI/ADR-RES ovarian and with MALME-3M melanoma was greater than 100 µM in each case. In the assay on KM12 colon, this compound gave a TGI greater than 100 µM.

With `O=C(Cc1ccccc1)NN1C(=O)C(Cl)C1c1ccc(Cl)cc1` (stereo not given), the TGI with NCI-H226 lung, with OVCAR-4 ovarian, with SK-MEL-28 melanoma, with MOLT-4 leukemia, in the assay with NCI-H23 lung and in the assay on RXF 393 renal was greater than 100 µM in each case. Besides, the TGI in the assay with IGROV1 ovarian, with SK-OV-3 ovarian, with CAKI-1 renal, in the assay on COLO 205 colon, with HCT-15 colon and in the assay on MALME-3M melanoma was greater than 100 µM each time. The TGI in the assay on KM12 colon and with RPMI-8226 leukemia was greater than 100 µM throughout.

Consider `Nc1ccccc1N`, for which the TGI in the assay on OVCAR-4 ovarian, in the assay with SK-MEL-28 melanoma, in the assay on MOLT-4 leukemia, in the assay on A498 renal, in the assay on NCI-H23 lung and in the assay with RXF 393 renal was greater than 100 µM in each case. The TGI in the assay on IGROV1 ovarian, with SK-OV-3 ovarian, in the assay with CAKI-1 renal, in the assay with COLO 205 colon, in the assay with HCT-15 colon and in the assay on MALME-3M melanoma was greater than 100 µM in each case. Also, the TGI in the assay on KM12 colon and in the assay with RPMI-8226 leukemia was greater than 100 µM in each case.

`CC(=O)CCC#Cc1ccccc1C(=O)C(C)=[N+]=[N-]`: the TGI is greater than 100 µM with NCI-H226 lung; greater than 100 µM with OVCAR-4 ovarian; greater than 100 µM with SK-MEL-28 melanoma; 85.4 µM in the assay on MOLT-4 leukemia; greater than 100 µM in the assay with A498 renal; greater than 100 µM with NCI-H23 lung. The TGI in the assay with RXF 393 renal is 97.5 µM; in the assay with IGROV1 ovarian it was greater than 100 µM; in the assay on SK-OV-3 ovarian it was greater than 100 µM; in the assay with COLO 205 colon it was 39.6 µM; with HCT-15 colon, greater than 100 µM; with MALME-3M melanoma it was 84.1 µM. The TGI in the assay with KM12 colon was greater than 100 µM; in the assay on RPMI-8226 leukemia it was 68.3 µM.

Consider `O=C(O)C(Cc1cc(I)c(O)c(I)c1)C1CCCCC1` (stereo not given), for which the TGI was greater than 100 µM with NCI-H226 lung; greater than 100 µM in the assay on OVCAR-4 ovarian; greater than 100 µM with SK-MEL-28 melanoma; 76.2 µM with MOLT-4 leukemia; 63.7 µM in the assay on A498 renal; 65.5 µM in the assay with NCI-H23 lung. Further, the TGI was greater than 100 µM in the assay on RXF 393 renal; greater than 100 µM with IGROV1 ovarian; greater than 100 µM in the assay on CAKI-1 renal; greater than 100 µM in the assay with HCT-15 colon; greater than 100 µM in the assay with NCI/ADR-RES ovarian; 72.5 µM in the assay with MDA-MB-231 breast. The TGI in the assay on MALME-3M melanoma and in the assay on KM12 colon was greater than 100 µM in each case.

Consider `C/C(=N/NC(=O)c1ccccc1S(N)(=O)=O)C(CN1CCCCC1)C(C1=C(O)C2C=CC=CC2OC1=O)c1ccccc1` (stereo not given), for which the TGI in the assay with NCI-H226 lung is greater than 100 µM; in the assay with OVCAR-4 ovarian, greater than 100 µM; in the assay on A498 renal, greater than 100 µM; in the assay on NCI-H23 lung, greater than 100 µM; in the assay on RXF 393 renal, 68.4 µM; with IGROV1 ovarian it was greater than 100 µM. Moreover, the TGI in the assay on SK-OV-3 ovarian was greater than 100 µM; in the assay on CAKI-1 renal, greater than 100 µM; in the assay on COLO 205 colon it was 41.3 µM; in the assay on HCT-15 colon, greater than 100 µM; in the assay with MALME-3M melanoma, greater than 100 µM; with KM12 colon it was greater than 100 µM. The same compound came in with a TGI with RPMI-8226 leukemia of 79 µM.

Regarding `Cc1ccc(S(=O)(=O)n2cc(/C=C/C#N)c(-c3cn(S(=O)(=O)c4ccc(C)cc4)cc3-c3cn(S(=O)(=O)c4ccc(C)cc4)cc3/C=C/C#N)c2)cc1`, the TGI in the assay with NCI-H226 lung, in the assay with OVCAR-4 ovarian, with A498 renal, in the assay on NCI-H23 lung, with IGROV1 ovarian and in the assay on SK-OV-3 ovarian was greater than 100 µM each time. Further, the TGI in the assay with CAKI-1 renal, with COLO 205 colon, in the assay with HCT-15 colon, in the assay with NCI/ADR-RES ovarian, in the assay with MDA-MB-231 breast and in the assay on MALME-3M melanoma was greater than 100 µM throughout. For the same compound, the TGI in the assay on KM12 colon and in the assay with RPMI-8226 leukemia was greater than 100 µM in each case.
